Experimental data from patent publication US20240252535A1, “CELLULAR COMPOSITION FOR TREATMENT OF DISEASES, DISORDERS OR CONDITIONS AND METHOD OF USE” (priority 2020, published 2024).
Structures can show the parent of a compound that is named as a salt.

Experiments:
Raji cells = assay: CAR-T cell killing of luciferase-expressing Raji cells after pretreatment of CAR-T cells with serotonergic agonist; format: cell-based, human; details: for enhancement of killing of Raji cells: CD19 CAR-T cells preincubated one hour with 5×10^−5, 1×10^−4 or 2×10^−4 M agonist, washed, co-cultured 4 hours, versus unstimulated CAR-T cells; for level of killing of Raji cells: E:T ratio 3:1, agonist-stimulated CAR-T cells, 1% Triton-X100 control set as 100% killing
Procedure: Pergolide mesylate and 8-OH-DPAT (Sigma) were each dissolved in dimethyl sulfoxide (DMSO) to 2×10^−2 M. The solutions were subsequently diluted in Basal CAR-T medium (ProMab (Richmond, CA)) supplemented with 10% fetal bovine serum, 100U/mL sodium penicillin G (Rafa, Jerusalem) and 1000U/mL streptomycin (Rafa, Jerusalem), in a serial manner, to the indicated final concentrations. CD19 scFv-4-1BB-CD3ζ CAR-T cells (CAT. PM-CAR1002-1M) purchased from ProMab (Richmond, CA) were incubated with the diluted pergolide mesylate or 8-OH-DPAT for one hour, at 37° C. and 5% C02. The cells were pelleted by centrifugation and washed with regular cell growth medium to remove pergolide mesylate and 8-OH-DPAT prior to co-culture with target luciferase Raji cells.
Luciferase Raji cells stably expressing luciferase (Raji/NF-kB Reporter (Luc) stable cell line Cat. CL-1280) were purchased from FenicsBio (Halethorpe, MD) and grown in RPMI medium (Gibco Cat. 21875-034) supplemented with 10% fetal bovine serum, 100U/mL sodium penicillin G (Rafa, Jerusalem) and 1000 U/mL streptomycin (Rafa, Jerusalem), at 37° C. and 5% C02.
Target 2.5×10^3 Raji-luc cells were cultured, at 37° C. and 5% CO2, in each well of 96-well plates, either in medium, medium containing 1% Triton-X100 (Sigma), or with effector CAR-T cells, at an effector:target cell ratio of 0.5:1, 1:1, or 3:1 for 4 hours. Four replicate wells were prepared for each type of sample. Following the incubation period, the cells were incubated with 50 μL of reconstituted reagent (Bright-Glo Luciferase Assay System, E2620) for 2 min to detect the fluorescence intensity (FLUOstar OMEGA). The fluorescence intensity of the 1% Triton-X100 control was set as 100% killing.

5-HT2A = 5-HT2A (Homo sapiens, UniProt P28223); details: cited from earlier work
5-HT1A receptors = target: T1, 5-HT1A receptors (Homo sapiens, UniProt P08908); details: cited from earlier work
T1 sequence (P08908 1-422): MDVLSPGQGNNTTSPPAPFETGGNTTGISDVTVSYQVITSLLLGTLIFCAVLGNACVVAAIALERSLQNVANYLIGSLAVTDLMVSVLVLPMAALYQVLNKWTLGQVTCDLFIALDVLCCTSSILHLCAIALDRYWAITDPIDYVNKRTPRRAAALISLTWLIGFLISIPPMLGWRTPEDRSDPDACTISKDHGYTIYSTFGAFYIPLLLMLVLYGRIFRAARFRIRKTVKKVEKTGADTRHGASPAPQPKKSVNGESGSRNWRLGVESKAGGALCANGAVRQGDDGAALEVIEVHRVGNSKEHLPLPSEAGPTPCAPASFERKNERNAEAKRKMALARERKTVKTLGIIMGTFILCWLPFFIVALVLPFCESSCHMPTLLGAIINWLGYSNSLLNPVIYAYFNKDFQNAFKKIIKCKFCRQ

ovarian cancer = details: administration to tumor-bearing mice; cited from earlier work

Chain of 5-HT2A (P28223 whole entry): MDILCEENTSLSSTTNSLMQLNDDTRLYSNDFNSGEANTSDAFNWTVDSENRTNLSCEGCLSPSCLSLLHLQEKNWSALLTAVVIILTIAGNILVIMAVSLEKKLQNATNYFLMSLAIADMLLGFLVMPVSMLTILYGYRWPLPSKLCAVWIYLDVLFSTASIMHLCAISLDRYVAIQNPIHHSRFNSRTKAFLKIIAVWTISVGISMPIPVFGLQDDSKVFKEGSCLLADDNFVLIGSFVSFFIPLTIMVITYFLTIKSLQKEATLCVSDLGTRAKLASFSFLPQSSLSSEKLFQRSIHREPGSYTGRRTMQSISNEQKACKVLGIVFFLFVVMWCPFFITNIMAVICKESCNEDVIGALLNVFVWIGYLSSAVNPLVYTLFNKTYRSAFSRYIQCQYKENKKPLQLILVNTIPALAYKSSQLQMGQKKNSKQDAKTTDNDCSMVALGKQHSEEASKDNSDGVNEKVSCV

| SMILES | enhancement of killing of Raji cells (Raji cells) | level of killing of Raji cells (Raji cells) | time to disease progression (ovarian cancer) | tumor weight (ovarian cancer) | also measured |
| --- | --- | --- | --- | --- | --- |
| CCCN(CCC)C1CCc2cccc(O)c2C1 (stereo not shown) [8-OH-DPAT, 8-hydroxy-2-(di-n-propylamino)tetralin] | 2-3 fold | approximately 100% | – | – | – |
| CCCN1C[C@H](CSC)C[C@@H]2c3cccc4[nH]cc(c34)C[C@H]21 [pergolide mesylate] | 2-3 fold | approximately 100% | – | – | – |
| CN(C)CCc1c[nH]c2cccc(OP(=O)(O)O)c12 [psilocybin] | – | – | – | – | Ki (5-HT2A): 6 nM; Ki (5-HT1A receptors): 190 nM |
| NCCc1c[nH]c2ccc(O)cc12 [serotonin, 5-hydroxytryptamine] | – | – | decreased | increased | – |
| CN[C@H]1CC[C@@H](c2ccc(Cl)c(Cl)c2)c2ccccc21 [sertraline] | – | – | decreased | increased | – |
